From patent US10364256B2 (GlaxoSmithKline Intellectual Property Development Limited, priority 2015, dated 2019)
Read-outs that look alike come from different tables or passages of the source.

Tests used:
[1] = system: NQO1 specific enzyme activity in BEAS-2B cells (marker for NRF2 activation); experiment: BEAS-2B NQO1 MTT Assay; assay type: cell-based; details: compound incubated 48 hours, read-out: EC50 (NQO1 specific enzyme activity induction)
Source text: BEAS-2B NQO1 MTT Assay NAD(P)H:quinone oxidoreductase 1 (NQO1), also called DT diaphorase, is a homodimeric FAD-containing enzyme that catalyzes obligatory NAD(P)H-dependent two-electron reductions of quinones and protects cells against the toxic and neoplastic effects of free radicals and reactive oxygen species arising from one-electron reductions. The transcription of NQO1 is finely regulated by NRF2, and thus NQO1 activity is a good marker for NRF2 activation. On day one, frozen BEAS-2B cells (ATCC) are thawed in a water bath, counted, and re-suspended at a concentration of 250,000 cells/mL. Fifty microliters of cells are plated in 384 well black clear-bottomed plates. Plates are incubated at 37° C., 5% CO2 overnight. On day two, plates are centrifuged and 50 nL of compound or controls are added to the cells. Plates are then incubated at 37° C., 5% CO2 for 48 hours. On day four, medium is aspirated from the plate and crude cell lysates are made by adding 13 uL of 1× Cell Signaling Technologies lysis buffer with 1 Complete, Mini, EDTA-free Protease Inhibitor Tablet (Roche) for each 10 mL of lysis buffer. After lysis plates are incubated for 20 minutes at room temperature. Two microliters of lysate are removed for use in Cell Titer Glo assay (Promega) and MTT cocktail is prepared (Prochaska et. al. 1998) for measurement of NQO1 activity. Fifty microliters of MTT cocktail is added to each well, plate is centrifuged, and analyzed on an Envision plate reader (Perkin Elmer) using Absorbance 570 nm label for 30 minutes. Product formation is measured kinetically and the pEC50 of NQO1 specific activity induction is calculated by plotting the change in absorbance (Delta OD/min) versus the log of compound concentration followed by 3-parameter fitting. pEC50 is the negative log of the EC50.

[2] = molecular target: T1, Keap1 Kelch domain (321-609) / TAMRA-labeled 16mer NRF2 peptide (ETGE motif) (Homo sapiens, UniProt Q14145); experiment: NRF2-Keap1 FP Assay (Keap1 Kelch fluorescence polarization); assay type: binding; details: 20 nM Keap1 (321-609), 8 nM Tamra labeled peptide
T1 construct: the Kelch domain (321-609) of Keap1 is used
Source text: One model for the NRF2-Keap1 interaction is through two binding sites in the Neh2 domain on NRF2. The two sites are referred to as the DLG binding motif (latch domain, uM affinity) and the ETGE binding motif (hinge domain, nM affinity). The Keap1 protein consists of an N-terminal region (NTR), a broad complex, tramtrack, and brick a′ brac domain (BTB), an intervening region (IVR), a double glycine repeat domain (DGR or Kelch), and a C-terminal region. The DLG and ETGE motifs of NRF2's Neh2 domain bind to the Kelch domain of Keap1 at different affinities. In the Keap1 Kelch fluorescence polarization (FP) assay, a TAMRA-labeled 16mer peptide (AFFAQLQLDEETGEFL) containing the ETGE motif of NRF2 and the Kelch domain (321-609) of Keap1 is used. The assay determines if a compound interferes with the binding between Keap1 […] and the TAMRA-labeled peptide. Binding of TAMRA-labeled NRF2 peptide to Keap1 (321-609) results in a high FP signal. If a compound interferes with the binding between the peptide and the protein, it will cause the assay signal to decrease. Thus, assay signal is inversely proportional to binding inhibition.
100 nl of 100× compound dose response curves (serial 3-fold dilutions) in DMSO are stamped using an Echo liquid handling system (Labcyte) into 384-well low volume black assay plates (Greiner, #784076), with DMSO in columns 6 and 18. The top concentration of compound is located in columns 1 and 13. Keap1 (321-609) is diluted to 40 nM (2×) in 1× assay buffer (50 mM Tris, pH 8.0, 100 mM NaCl, 5 mM MgCl2, 1 mM DTT, 2 mM CHAPS, and 0.005% BSA) and 5 ul is added using a Multidrop Combi (Thermo Electron Corporation) equipped with a metal tip dispenser to all wells of the compound plate, except column 18. Column 18 receives only 5 ul of assay buffer. Immediately, 5 uL of 16 nM (2×) of Tamra labeled peptide (AFFAQLQLDEETGEFL, 21st Century Biochemicals) is added to all wells of the plate. The plates are spun at 500 rpm for 1 min, incubated for 1 hr at room temperature, and read on an Analyst GT (Molecular Devices) equipped with excitation (530/25 nm) and emission (580/10 nm) filters designed for Tamra probes. A 561 nm dichroic mirror is also used in the Analyst. The final assay concentrations of Keap1 (321-609) and Tamra labeled peptide are 20 nM and 8 nM, respectively. Fluorescence measurements, represented as mP, are used in the transformation of the data. Compound activity is calculated based on percent inhibition, normalized against controls in the assay (Control 1 contains the Tamra peptide and Keap1 (321-609) together (0% response) and control 2 contains the Tamra peptide alone (100% response)). Data analysis is handled using the software package Abase XE (Surrey, United Kingdom. The % inhibition values are calculated by the equation: 100−(100*((compound response−average control 2)/(average control 1−average control2))). For calculation of pIC50s, Abase XE uses a four parameter equation. pIC50 is the negative log of the IC50.

[3] = molecular target: T2, full length Keap1 protein / full length NRF2 protein (Homo sapiens, UniProt Q14145); experiment: NRF2-Keap1 TR-FRET Low Protein Assay; assay type: binding; details: 1.25 nM Keap1 FlagHis and 2.5 nM biotin-NRF2 added
T2 construct: full length NRF2 protein and full length Keap1 protein (Keap1 exists a dimer) are used; His
Source text: NRF2-Keap1 TR-FRET Low Protein Assay In the NRF2-Keap1 TR-FRET (time-resolved fluorescence resonance energy transfer) low protein assay, full length NRF2 protein and full length Keap1 protein (Keap1 exists a dimer) are used. The assay detects a compound's ability to displace the binding of Keap1 […] with biotinylated Avi-NRF2 protein. Biotin-NRF2 binds to streptavidin-europium (a component of the detection mix) and Keap1 […] is recognized by anti-Flag APC (allophycocyanin) antibody (also a component of the detection mix). If binding occurs between the two proteins, there will be an energy transfer from the Eu+3 (donor) at 615 nm to the APC (acceptor) at 665 nm. A potential NRF2 inhibitor will cause a reduction in the TR-FRET signal by interfering with the binding of Keap1 to NRF2. Ten nanoliters of 100× compound dose response curves (serial 3-fold dilutions) in DMSO are stamped using an Echo liquid handling system (Labcyte) into 384-well, low volume, black assay plates (Greiner, #784076), with DMSO in columns 6 and 18. An additional 90 nl DMSO is added to each well, to bring the total volume to 100 nl per well. The top concentration of compound is located in columns 1 and 13, with the serial dilutions going across the row. All reagents are diluted in assay buffer (50 mM Tris, pH 8.0, 5 mM MgCl2, 100 mM NaCl, 0.005% BSA, 1 mM DTT, and 2 mM CHAPS. The BSA, DTT, and CHAPS are added to the assay buffer on the day of assay. […] Wells in column 18 receive 5 ul of assay buffer instead. Plates are centrifuged at 500 rpm for 1 minute, covered with a plate lid, and incubated at 37° C. for 2.25 hours. Plates are then removed from the incubator and allowed to cool to RT for 15 minutes. Five microliters of 2.5 nM biotin-NRF2 protein is then added to all wells of the plates and the plates are spun at 500 rpm for 1 minute, followed by incubating at 4° C. for 1.25 hours. The plates are then allowed to warm to RT for 15 minutes, followed by the addition of 10 ul of detection mix (1 nM Streptavidin Eu+W1024 and 5 ug/ml mouse anti-DYKDDDDK IgG conjugated to SureLight APC antibody; both from Columbia Biosciences) to all wells. Plates are spun at 500 rpm for 1 minute, incubated for 1 hour at RT, and read on an Envision plate reader using a 320 nm excitation filter and 615 nm and 665 nm emission filters. […] Data analysis is handled using the software package Abase XE (Surrey, United Kingdom). […] For calculation of pIC50s, Abase XE uses a four parameter equation. pIC50 is the negative log of the IC50.

T1 sequence (Q14145 321-609): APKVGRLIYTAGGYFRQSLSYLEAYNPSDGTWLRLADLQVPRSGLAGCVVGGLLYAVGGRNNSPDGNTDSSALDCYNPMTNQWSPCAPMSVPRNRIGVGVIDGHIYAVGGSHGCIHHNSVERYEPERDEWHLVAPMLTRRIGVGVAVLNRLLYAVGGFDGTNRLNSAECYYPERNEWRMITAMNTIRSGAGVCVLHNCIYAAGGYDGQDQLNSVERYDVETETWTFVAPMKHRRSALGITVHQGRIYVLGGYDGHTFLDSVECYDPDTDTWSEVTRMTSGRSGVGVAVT
T2 sequence (Q14145 whole entry): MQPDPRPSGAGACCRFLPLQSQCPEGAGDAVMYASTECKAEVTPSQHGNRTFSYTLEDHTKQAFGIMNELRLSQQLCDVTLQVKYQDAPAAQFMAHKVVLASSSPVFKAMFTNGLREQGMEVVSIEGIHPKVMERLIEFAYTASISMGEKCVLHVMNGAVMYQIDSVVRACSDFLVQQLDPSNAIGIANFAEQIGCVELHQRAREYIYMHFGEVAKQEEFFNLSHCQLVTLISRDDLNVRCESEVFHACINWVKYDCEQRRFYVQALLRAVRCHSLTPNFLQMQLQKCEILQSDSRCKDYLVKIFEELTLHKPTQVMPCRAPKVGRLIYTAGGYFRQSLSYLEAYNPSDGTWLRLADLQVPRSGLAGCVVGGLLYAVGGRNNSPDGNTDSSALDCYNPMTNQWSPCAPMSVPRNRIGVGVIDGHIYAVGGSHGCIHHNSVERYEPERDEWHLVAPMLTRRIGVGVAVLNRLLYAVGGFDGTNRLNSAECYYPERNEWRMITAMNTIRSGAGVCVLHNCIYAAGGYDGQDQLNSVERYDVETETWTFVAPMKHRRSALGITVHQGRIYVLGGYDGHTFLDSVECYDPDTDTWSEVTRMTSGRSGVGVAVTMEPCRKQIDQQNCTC

Work on “1-(3′-((1-Ethyl-2,3-dihydro-1H-benzo[e][1,4]diazepin-4(5H)-yl)methyl)-[1,1′-biphenyl]-3-yl)-5-((1,2-trans)-2-(1-methyl-1H-1,2,3-triazol-4-yl)cyclopropyl)-1H-pyrazole-4-carboxylic Acid [Example 127]” yielded an EC50 [1] of 100 to 1000 nM, an IC50 [2] of 10 to 100 nM and an IC50 [3] of 10 to 100 nM.

Work on C[C@H](Oc1cccc(-c2cccc(-n3ncc(C(=O)O)c3[C@@H]3C[C@H]3c3cn(C)nn3)c2)c1)C1CCCCC1 (racemic) [Example 75, 1-(3′-((S)-1-Cyclohexylethoxy)-[1,1′-biphenyl]-3-yl)-5-(trans-2-(1-methyl-1H-1,2,3-triazol-4-yl)cyclopropyl)-1H-pyrazole-4-carboxylic Acid] yielded an EC50 ([1]; Homo sapiens, BEAS-2B, 48 h) of 1 to 10 nM.

C[C@H](Oc1cccc(-c2cccc(-n3ncc(C(=O)O)c3[C@@H]3C[C@H]3c3cn(C4CC4)nn3)c2)c1)C1CCCCC1 (racemic) [Example 79, 1-(3′-((S)-1-Cyclohexylethoxy)-[1,1′-biphenyl]-3-yl)-5-(trans-2-(1-cyclopropyl-1H-1,2,3-triazol-4-yl)cyclopropyl)-1H-pyrazole-4-carboxylic acid] was tested, and the EC50 ([1]; Homo sapiens) was 1 to 10 nM.

Compound C[C@H](Oc1cccc(-c2cccc(-n3ncc(C(=O)O)c3[C@@H]3C[C@H]3c3cn(C4CCOCC4)nn3)c2)c1)C1CCCCC1 (racemic) [Example 83, 1-(3′-((S)-1-Cyclohexylethoxy)-[1,1′-biphenyl]-3-yl)-5-(trans-2-(1-(tetrahydro-2H-pyran-4-yl)-1H-1,2,3-triazol-4-yl)cyclopropyl)-1H-pyrazole-4-carboxylic acid] has an EC50 ([1]; Homo sapiens) of 1 to 10 nM.

Compound C[C@H](Oc1cccc(-c2cccc(-n3ncc(C(=O)O)c3[C@@H]3C[C@H]3c3cn(CC(F)(F)F)nn3)c2)c1)C1CCCCC1 (racemic) [Example 89, 1-(3′-((S)-1-Cyclohexylethoxy)-[1,1′-biphenyl]-3-yl)-5-(trans-2-(1-(2,2,2-trifluoroethyl)-1H-1,2,3-triazol-4-yl)cyclopropyl)-1H-pyrazole-4-carboxylic acid] has an EC50 ([1]; Homo sapiens) of 1 to 10 nM.

C[C@H](Oc1cccc(-c2cccc(-n3ncc(C(=O)O)c3[C@@H]3C[C@H]3c3c[nH]nn3)c2)c1)C1CCCCC1 (racemic) [Example 93, 5-(trans-2-(1H-1,2,3-Triazol-4-yl)cyclopropyl)-1-(3′-((S)-1-cyclohexylethoxy)-[1,1′-biphenyl]-3-yl)-1H-pyrazole-4-carboxylic Acid] gave an EC50 ([1]; Homo sapiens) of 1 to 10 nM.

Work on C[C@H]1Cc2ccccc2S(=O)(=O)N(Cc2cccc(-c3cccc(-n4ncc(C(=O)O)c4[C@@H]4C[C@H]4c4cn(C)nn4)c3)c2)C1 (racemic) [Example 136, 1-(3′-(((S)-4-methyl-1,1-dioxido-4,5-dihydrobenzo[f][1,2]thiazepin-2(3H)-yl)methyl)-[1,1′-biphenyl]-3-yl)-5-((1,2-trans)-2-(1-methyl-1H-1,2,3-triazol-4-yl)cyclopropyl)-1H-pyrazole-4-carboxylic acid] yielded an EC50 ([1]; Homo sapiens) of 100 to 1000 nM.

C[C@@H]1Cc2ccccc2S(=O)(=O)N(Cc2cccc(-c3cccc(-n4ncc(C(=O)O)c4[C@@H]4C[C@H]4c4cn(C)nn4)c3)c2)C1 (racemic) [Example 137, 1-(3′-(((R)-4-methyl-1,1-dioxido-4,5-dihydrobenzo[f][1,2]thiazepin-2(3H)-yl)methyl)-[1,1′-biphenyl]-3-yl)-5-((1,2-trans)-2-(1-methyl-1H-1,2,3-triazol-4-yl)cyclopropyl)-1H-pyrazole-4-carboxylic acid] gave an EC50 ([1]; Homo sapiens) of 10 to 100 nM.

CCC[C@@H]1CCCCN1C(=O)c1cccc(-c2cccc(-n3ncc(C(=O)O)c3[C@@H]3C[C@H]3c3cn(C)nn3)c2)c1 (racemic) [Example 199, 5-((1,2-trans)-2-(1-methyl-1H-1,2,3-triazol-4-yl)cyclopropyl)-1-(3′-((R)-2-propylpiperidine-1-carbonyl)-[1,1′-biphenyl]-3-yl)-1H-pyrazole-4-carboxylic acid] was tested, and the EC50 ([1]; Homo sapiens, BEAS-2B, 48 h) was 10 to 100 nM.

CC(Cc1cccc(-c2cccc(-n3ncc(C(=O)O)c3[C@@H]3C[C@H]3c3cn(C)nn3)c2)c1)C1CCCCC1 (single isomer, unassigned) [Example 116f, 1-(3′-((R) or (S)-2-Cyclohexylpropyl)-[1,1′-biphenyl]-3-yl)-5-((1R,2R)-2-(1-methyl-1H-1,2,3-triazol-4-yl)cyclopropyl)-1H-pyrazole-4-carboxylic Acid] was tested, and the EC50 [1] was 1 to 10 nM and the IC50 [2] was 10 to 100 nM.
